Laboratory results: patent EP1000062B1, “TRICYCLIC VASOPRESSIN AGONISTS” (Wyeth, priority 1997, dated 1999)

Tested on: Vasopressin V2
Experiment: Vasopressin V2 agonist effects of test compounds in normal conscious water-loaded rats
Format: in vivo
Conditions: Sprague-Dawley (CD) rats, oral 10 mg/kg, urine collected for four hours; for Osmolality (% Increase): change in osmolality as percent of control; for Urine Volume (% decrease): vs. control
Experimental: Vasopressin V2 Agonist Effects of Test Compounds in Normal Conscious Water-Loaded Rats:
On the day of test, rats were placed individually into metabolic cages equipped with devices to separate the feces from the urine and containers for collection of urine. Test compound or reference agent was given at an oral dose of 10 mg/kg in a volume of 10 ml /kg. […] Thirty minutes after dosing the test compound, rats were gavaged with water at 30 ml /kg into the stomach using a feeding needle. During the test, rats were not provided with water or food. Urine was collected for four hours after dosing of the test compound. At the end of four hours, urine volume was measured. […] Determinations of Na^+, K^+ and Cl^- ion were carried out using ion specific electrodes in a Beckman SYNCHRON EL-ISE Electrolyte System analyzer. […] In the screening test, two rats were used for each compound. If the difference in the urine volume of the two rats was greater than 50%, a third rat was used.

| Structure (SMILES) | Osmolality (% Increase) [%] | Urine Volume (% decrease) [%] |
| --- | --- | --- |
| Cc1n[nH]c(-c2ccc(C(=O)N3Cc4cccn4Cc4ccccc43)cc2)n1 [Example 50, [4-(5-Methyl-2H-[1,2,4]triazol-3-yl)-phenyl]-(5H,11H-pyrrolo[2,1-c][1,4]-benzodiazepin-10-yl)-methanone] | 223 | 53 |
| Cc1nc(-c2ccc(C(=O)N3Cc4cccn4Cc4ccccc43)cc2)n(C)n1 [Example 51, [4-(2,5-Dimethyl-2H-[1,2,4]triazol-3-yl)-phenyl]-(5H,11H-pyrrolo[2,1-c]-[1,4]benzodiazepin-10-yl)-methanone] |  | 72 |
| Cc1noc(-c2ccc(C(=O)N3Cc4cccn4Cc4ccccc43)cc2)n1 [Example 52, [4-(3-Methyl[1,2,4]oxadiazol-5-yl)-phenyl]-(5H,11H-pyrrolo-[2,1-c][1,4]-benzodiazepin-10-yl)-methanone] | 261 | 66 |
| Cn1cc(-c2ccc(C(=O)N3Cc4cccn4Cc4ccccc43)cc2)cn1 [Example 55, [4-(1-Methyl-1H-pyrazol-4-yl)-phenyl]-(5H,11H-pyrrolo[2,1-c][1,4]-benzodiazepin-10-yl)-methanone] | 164 | 80 |
| Cn1cc(-c2ccc(C(=O)N3Cc4cccn4Cc4ccccc43)cn2)cn1 [Example 57, [6-(1-Methyl-1H-pyrazol-4-yl)-pyridin-3-yl]-(5H,11H-pyrrolo[2,1-c][1,4]-benzodiazepin-10-yl)-methanone] | 288 | 77 |
| O=C(c1ccc(-n2cccn2)cc1)N1Cc2cccn2Cc2ccccc21 [Example 58, [4-(Pyrazol-1-yl)-phenyl]-(5H,11H-pyrrolo[2,1-c][1,4]benzodiazepin-10-yl)-methanone] | 324 | 49 |
| Cc1ccn(-c2ccc(C(=O)N3Cc4cccn4Cc4ccccc43)cc2)n1 [Example 59, [4-(3-Methyl-pyrazol-1-yl)-phenyl]-(5H,11H-pyrrolo[2,1-c][1,4]-benzodiazepin-10-yl)-methanone] | 607 | 80 |
| Cc1cnn(-c2ccc(C(=O)N3Cc4cccn4Cc4ccccc43)cc2)c1 [Example 60, [4-(4-Methyl-pyrazol-1-yl)-phenyl]-(5H,11H-pyrrolo[2,1-c][1,4]-benzodiazepin-10-yl)-methanone] | 165 | 54 |
| Cc1cc(C)n(-c2ccc(C(=O)N3Cc4cccn4Cc4ccccc43)cc2)n1 [Example 61, [4-(3,5-Dimethyl-pyrazol-1-yl)-phenyl]-(5H,11H-pyrrolo[2,1-c][1,4]-benzodiazepin-10-yl)-methanone] | 245 | 59 |
| O=C(c1ccc(-n2ccc(C(F)(F)F)n2)cc1)N1Cc2cccn2Cc2ccccc21 [Example 62, (5H,11H-Pyrrolo[2,1-c][1,4]benzodiazepin-10-yl)-[4-(3-trifluoromethyl-pyrazol-1-yl)-phenyl]-methanone] | 150 | 22 |
| O=C(c1ccc(-n2ccnc2)cc1)N1Cc2cccn2Cc2ccccc21 [Example 63, [4-(Imidazol-1-yl)-phenyl]-(5H,11H-pyrrolo[2,1-c][1,4]benzodiazepin-10-yl)-methanone] | 214 | 27 |
| Cc1cn(-c2ccc(C(=O)N3Cc4cccn4Cc4ccccc43)cc2)cn1 [Example 64, [4-(4-Methyl-imidazol-1-yl)-phenyl]-(5H,11H-pyrrolo[2,1-c][1,4]-benzodiazepin-10-yl)-methanone] | 349 | 79 |
| Cn1ccc(-c2ccc(C(=O)N3Cc4cccn4Cc4ccccc43)c(Cl)c2)n1 [Example 71, [2-Chloro-4-(1-methyl-1H-pyrazol-3-yl)-phenyl]-(5H,11H-pyrrolo[2,1-c]-[1,4]benzodiazepine-10-yl)-methanone] | 264 | 84 |
| N#Cc1ccc(C(=O)N2Cc3cccn3Cc3ccccc32)c(Cl)c1 [Example 77, 3-Chloro-4-(5H,11H-pyrrolo[2,1-c][1,4]benzodiazepine-10-carbonyl)-benzonitrile] | 90 | 13 |
| O=C(O)c1ccc(C(=O)N2Cc3cccn3Cc3ccccc32)c(Cl)c1 [Example 78, 3-Chloro-4-(5H,11H-Pyrrolo[2,1-c][1,4]benzodiazepine-10-carbonyl)-benzoic acid] | 115 | 21 |
| NC(=O)c1ccc(C(=O)N2Cc3cccn3Cc3ccccc32)c(Cl)c1 [Example 79, 3-Chloro-4-(5H,11H-pyrrolo[2,1-c][1,4]benzodiazepine-10-carbonyl)-benzamide] | 123 | 38 |

| Structure (SMILES) | Osmolality (% Increase) [%] | Urine Volume (% decrease) [%] |
| --- | --- | --- |
| Cc1n[nH]c(-c2ccc(C(=O)N3Cc4cccn4Cc4ccccc43)c(Cl)c2)n1 [Example 81, [2-Choro-4-(5-methyl-2H-[1,2,4]triazol-3-yl)phenyl]-(5H,11H-pyrrolo[2,1-c][1,4]benzodiazepine-10-carbonyl)-methanone] | 490 | 82 |
| O=C(c1ccc(-c2ncn[nH]2)cc1Cl)N1Cc2cccn2Cc2ccccc21 [Example 83, [2-Chloro-4-(2H-1,2,4-triazol-3-yl)-phenyl]-(5H,11H-pyrrolo[2,1-c][1,4]-benzodiazepin-10-yl)-methanone] | 442 | 85 |
| Cn1ncnc1-c1ccc(C(=O)N2Cc3cccn3Cc3ccccc32)c(Cl)c1 [Example 84, [2-Chloro-4-(2-methyl-2H-[1,2,4]triazol-3-yl)-phenyl]-(5H,11H-pyrrolo [2,1-c][1,4]benzodiazepin-10-carbonyl)-methanone] | 291 | 56 |
| Cc1nc(-c2ccc(C(=O)N3Cc4cccn4Cc4ccccc43)c(Cl)c2)n(C)n1 [Example 85, 4-[(2,5-Dimethyl-2H-[1,2,4]triazol-3-yl)-2-chloro-phenyl]-(5H,11H-pyrrolo[2,1-c][1,4]benzodiazepin-10-carbonyl)-methanone] | 436 | 76 |
| O=C(c1ccc(-c2nnn[nH]2)cc1Cl)N1Cc2cccn2Cc2ccccc21 [Example 86, [2-Chloro-4-(1H-tetrazol-5-yl)-phenyl]-(5H,11H-pyrrolo[2,1-c][1,4]benzodiazepin-10-yl)-methanone] | 86 | 5 |
| Cc1ccn(-c2ccc(C(=O)N3Cc4ccc(CN(C)C)n4Cc4ccccc43)c(Cl)c2)n1 [Example 87, [2-Chloro-4-(3-methyl-pyrazol-1-yl)-phenyl]-(3-dimethylaminomethyl-5H,11H-pyrrolo[2,1-c][1,4]benzodiazepin-10-yl)-methanone] | 214 | 71 |
| Cc1ccn(-c2ccc(C(=O)N3Cc4ccc(Br)n4Cc4ccccc43)c(Cl)c2)n1 [Example 88, (3-Bromo-5H,11H-pyrrolo[2,1-c][1,4]benzodiazepin-10-yl)-[2-chloro-4-(3-methyl-pyrazol-1-yl)-phenyl]-methanone] | 226 | 68 |
| Cc1ccn(-c2ccc(C(=O)N3Cc4cccn4Cc4ccccc43)c(Br)c2)n1 [Example 90] | 413 | 61 |
| O=C(c1ccc(F)cc1F)N1Cc2cccn2Cc2ccccc21 [Example 91, (2,4-Difluoro-phenyl)-(5H,11H-pyrrolo[2,1-c][1,4]benzodiazepin-10-yl)-methanone] | 69 | 22 |
| Cc1ccn(-c2ccc(C(=O)N3Cc4cccn4Cc4ccccc43)c(F)c2)n1 [Example 92, [2-Fluoro-4-(3-methyl-pyrazol-1-yl)-phenyl]-(5H,11H-pyrrolo[2,1-c][1,4]-benzodiazepin-10-yl)-methanone] | 454 | 69 |
| Cc1ccn(-c2ccc(C(=O)N3Cc4ccnn4Cc4ccccc43)c(C(F)(F)F)c2)n1 [Example 95, [4-(3-Methylpyrazol-1-yl)-2-trifluoromethylphenyl]-[5H,11H-pyrazolo[5,1-c]-[1,4]benzodiazepin-10-yl)-methanone] | 300 | 68 |
| Cc1ccn(-c2ccc(C(=O)O)c(Cl)c2)n1 [Example 97, 2-Chloro-4-(3-methyl-1H-pyrazol-1-yl)-benzoic acid] | 106 | 3 |
| O=C(c1ccc(-n2cccn2)nc1Cl)N1Cc2cccn2Cc2ccccc21 [Example 99, (2-Chloro-6-pyrazol-1-yl-pyridin-3-yl)-(5H,11H-pyrrolo[2,1-c][1,4]benzodiazepin-10-yl)-methanone] | 205 | 43 |
| Cc1ccn(-c2ccc(C(=O)N3Cc4cccn4Cc4ccccc43)c(Cl)n2)n1 [Example 100, [2-Chloro-6-(3-methylpyrazol-1-yl)-pyridin-3-yl]-(5H,11H-pyrrolo[2,1-c] [1,4]benzodiazepin-10-yl)-methanone] | 248 | 24 |
| Cc1cnn(-c2ccc(C(=O)N3Cc4cccn4Cc4ccccc43)c(Cl)n2)c1 [Example 101, [2-Chloro-6-(4-methylpyrazol-1-yl)-pyridin-3-yl](5H,11H-pyrrolo[2,1-c] [1,4]benzodiazepin-10-yl)-methanone] | 376 | 76 |
